# Calls of active or inactive are those of the source.
# Tests used:
# [1] = biological target: Adenosylmethionine-8-amino-7-oxononanoate aminotransferase (Mycobacterium tuberculosis, UniProt P9WQ81); test: Mycobacterium tuberculosis BioA enzyme inhibitor Measured in Biochemical System Using Plate Reader - 2163-02_Inhibitor_Dose_CherryPick_Activity.; type: functional, Mycobacterium tuberculosis UT205
# cells = type: functional, cell-based
# [2] = biological target: T1, Nuclear receptor subfamily 0 group B member 1 (Homo sapiens, UniProt P51843); type: functional, cell-based;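 also: HEK293T cells transfected with SF-1 and DAX-1 plus StAR promoter luciferase reporter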
# T1 sequence (P51843 whole entry): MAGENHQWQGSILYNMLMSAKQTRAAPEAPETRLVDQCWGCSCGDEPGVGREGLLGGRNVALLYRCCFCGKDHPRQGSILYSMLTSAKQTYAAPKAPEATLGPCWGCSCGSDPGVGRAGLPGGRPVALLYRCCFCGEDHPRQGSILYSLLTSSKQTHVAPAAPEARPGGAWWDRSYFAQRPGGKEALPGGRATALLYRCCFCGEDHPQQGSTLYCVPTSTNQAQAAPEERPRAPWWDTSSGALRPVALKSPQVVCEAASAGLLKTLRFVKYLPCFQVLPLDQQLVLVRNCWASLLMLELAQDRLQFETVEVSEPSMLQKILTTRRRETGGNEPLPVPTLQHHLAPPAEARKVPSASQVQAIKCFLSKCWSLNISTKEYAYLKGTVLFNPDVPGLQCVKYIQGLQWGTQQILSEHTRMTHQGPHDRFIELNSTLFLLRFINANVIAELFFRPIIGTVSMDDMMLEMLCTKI
# [3] = biological target: T2, Tyrosine-protein kinase JAK3 (Homo sapiens, UniProt P52333); type: functional
# T2 sequence (P52333 whole entry): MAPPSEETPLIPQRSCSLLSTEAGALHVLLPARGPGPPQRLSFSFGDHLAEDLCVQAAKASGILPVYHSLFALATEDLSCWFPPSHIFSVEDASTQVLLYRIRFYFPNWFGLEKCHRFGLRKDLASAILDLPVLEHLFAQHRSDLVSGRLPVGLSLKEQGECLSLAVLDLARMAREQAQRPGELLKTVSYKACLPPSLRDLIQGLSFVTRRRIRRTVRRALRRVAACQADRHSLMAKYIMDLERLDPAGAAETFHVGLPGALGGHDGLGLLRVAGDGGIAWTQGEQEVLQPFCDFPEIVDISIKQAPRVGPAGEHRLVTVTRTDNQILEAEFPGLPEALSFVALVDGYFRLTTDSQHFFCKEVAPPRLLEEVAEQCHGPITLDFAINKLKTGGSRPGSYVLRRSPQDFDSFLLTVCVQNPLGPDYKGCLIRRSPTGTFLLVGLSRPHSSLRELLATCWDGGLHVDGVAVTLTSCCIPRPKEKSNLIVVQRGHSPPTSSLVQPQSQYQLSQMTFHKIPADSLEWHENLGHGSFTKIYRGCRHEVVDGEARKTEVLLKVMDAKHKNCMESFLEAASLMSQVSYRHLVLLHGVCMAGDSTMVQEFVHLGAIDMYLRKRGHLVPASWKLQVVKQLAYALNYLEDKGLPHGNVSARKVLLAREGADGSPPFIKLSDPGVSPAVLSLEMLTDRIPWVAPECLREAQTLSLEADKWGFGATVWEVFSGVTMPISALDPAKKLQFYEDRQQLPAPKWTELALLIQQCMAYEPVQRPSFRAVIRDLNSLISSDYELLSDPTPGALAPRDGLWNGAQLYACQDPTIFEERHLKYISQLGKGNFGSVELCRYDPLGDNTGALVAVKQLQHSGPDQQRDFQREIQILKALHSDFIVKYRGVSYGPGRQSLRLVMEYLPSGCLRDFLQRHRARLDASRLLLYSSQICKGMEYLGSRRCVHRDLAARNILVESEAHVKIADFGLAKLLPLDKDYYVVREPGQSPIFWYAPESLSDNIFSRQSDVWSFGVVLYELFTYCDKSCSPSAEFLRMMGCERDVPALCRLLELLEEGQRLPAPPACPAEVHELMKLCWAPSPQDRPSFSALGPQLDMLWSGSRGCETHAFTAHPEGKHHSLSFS
# [4] = biological target: T3, Testis-specific serine/threonine-protein kinase 2 (Homo sapiens, UniProt Q96PF2); type: functional;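 also: part of the Navigating the Kinome panel, target entry STK22B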
# T3 sequence (Q96PF2 whole entry): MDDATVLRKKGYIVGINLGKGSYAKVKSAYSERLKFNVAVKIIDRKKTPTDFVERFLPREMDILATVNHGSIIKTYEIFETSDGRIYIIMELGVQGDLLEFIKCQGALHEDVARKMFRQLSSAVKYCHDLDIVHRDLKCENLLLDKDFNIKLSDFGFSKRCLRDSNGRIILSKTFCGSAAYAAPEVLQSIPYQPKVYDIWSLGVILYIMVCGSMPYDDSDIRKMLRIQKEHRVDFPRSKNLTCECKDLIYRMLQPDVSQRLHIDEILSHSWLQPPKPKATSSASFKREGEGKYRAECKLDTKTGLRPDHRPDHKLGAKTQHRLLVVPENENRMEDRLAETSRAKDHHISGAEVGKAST
# [5] = biological target: T4, Apoptotic protease-activating factor 1 (Homo sapiens, UniProt O14727); type: functional
# T4 sequence (O14727 whole entry): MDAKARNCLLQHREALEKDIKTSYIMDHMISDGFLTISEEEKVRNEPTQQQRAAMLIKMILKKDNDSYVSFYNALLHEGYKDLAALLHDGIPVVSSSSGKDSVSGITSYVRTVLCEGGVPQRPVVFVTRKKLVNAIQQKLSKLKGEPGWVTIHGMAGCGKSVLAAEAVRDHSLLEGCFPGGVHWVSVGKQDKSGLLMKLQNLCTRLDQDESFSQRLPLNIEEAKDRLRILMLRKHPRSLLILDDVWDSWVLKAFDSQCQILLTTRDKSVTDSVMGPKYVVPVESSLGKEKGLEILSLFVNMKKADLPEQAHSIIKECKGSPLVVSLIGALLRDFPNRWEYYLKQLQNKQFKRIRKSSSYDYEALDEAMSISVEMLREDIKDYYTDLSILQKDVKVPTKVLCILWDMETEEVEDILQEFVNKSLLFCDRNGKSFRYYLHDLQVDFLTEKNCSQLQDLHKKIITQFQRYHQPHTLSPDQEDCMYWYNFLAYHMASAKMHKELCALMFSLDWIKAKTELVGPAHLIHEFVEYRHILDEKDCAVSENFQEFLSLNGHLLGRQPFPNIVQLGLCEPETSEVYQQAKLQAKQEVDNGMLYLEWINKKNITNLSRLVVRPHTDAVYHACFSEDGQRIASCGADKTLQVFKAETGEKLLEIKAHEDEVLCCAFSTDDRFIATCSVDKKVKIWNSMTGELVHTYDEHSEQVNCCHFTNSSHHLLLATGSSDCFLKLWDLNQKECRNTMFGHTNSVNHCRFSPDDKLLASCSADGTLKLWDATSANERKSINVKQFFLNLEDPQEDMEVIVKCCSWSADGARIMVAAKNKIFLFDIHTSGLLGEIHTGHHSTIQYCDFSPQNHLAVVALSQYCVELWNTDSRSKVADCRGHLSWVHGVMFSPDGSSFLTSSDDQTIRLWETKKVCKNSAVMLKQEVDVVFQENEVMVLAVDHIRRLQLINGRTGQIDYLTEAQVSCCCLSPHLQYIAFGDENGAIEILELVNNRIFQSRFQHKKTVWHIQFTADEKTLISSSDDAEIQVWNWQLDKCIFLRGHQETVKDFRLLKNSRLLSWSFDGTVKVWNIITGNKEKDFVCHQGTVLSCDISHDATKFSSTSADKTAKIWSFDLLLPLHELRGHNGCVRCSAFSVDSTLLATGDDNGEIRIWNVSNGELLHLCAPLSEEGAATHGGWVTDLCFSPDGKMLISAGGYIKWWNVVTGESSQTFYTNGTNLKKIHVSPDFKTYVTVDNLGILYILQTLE
# INS1 = test: INS-1E survival protection against cytokine death – cell-based, luminescence, retest, dose response (AID 449756); type: functional; conditions: Rattus norvegicus;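 also: cell death triggered by IL-1 beta plus TNF-alpha plus IFN-gamma mixture; protective hits raise ATP signal compared with cytokine alone wells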
# [6] = biological target: T5, Corticotropin-releasing factor receptor 2/Corticotropin-releasing factor-binding protein (Homo sapiens, UniProt P24387+Q13324); test: Dose Response confirmation of uHTS hits for small molecule antagonists of the CRF-binding protein and CRF-R2 receptor complex.; type: functional; conditions: read-out: IC50_Mean
# T5 sequence (Q13324 whole entry): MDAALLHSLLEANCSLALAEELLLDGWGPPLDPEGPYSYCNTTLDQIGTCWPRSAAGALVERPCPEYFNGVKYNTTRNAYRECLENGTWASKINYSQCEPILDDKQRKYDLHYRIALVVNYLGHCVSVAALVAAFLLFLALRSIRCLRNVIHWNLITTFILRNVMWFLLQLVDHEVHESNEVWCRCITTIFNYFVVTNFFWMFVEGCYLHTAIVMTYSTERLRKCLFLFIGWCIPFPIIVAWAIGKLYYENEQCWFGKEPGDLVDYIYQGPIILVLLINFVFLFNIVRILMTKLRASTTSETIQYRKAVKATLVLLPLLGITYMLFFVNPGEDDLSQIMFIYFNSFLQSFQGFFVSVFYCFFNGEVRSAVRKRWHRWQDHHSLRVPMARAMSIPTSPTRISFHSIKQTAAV
# T5 sequence (P24387 whole entry): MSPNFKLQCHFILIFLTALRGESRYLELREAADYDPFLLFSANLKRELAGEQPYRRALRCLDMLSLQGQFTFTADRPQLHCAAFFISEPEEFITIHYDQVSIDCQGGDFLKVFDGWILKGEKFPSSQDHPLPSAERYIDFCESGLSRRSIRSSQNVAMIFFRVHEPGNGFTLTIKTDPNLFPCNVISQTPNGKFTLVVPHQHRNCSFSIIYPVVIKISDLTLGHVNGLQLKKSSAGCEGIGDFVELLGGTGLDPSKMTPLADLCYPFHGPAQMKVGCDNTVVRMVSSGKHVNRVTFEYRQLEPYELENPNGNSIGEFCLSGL
# [7] = biological target: T5, Corticotropin-releasing factor receptor 2/Corticotropin-releasing factor-binding protein; test: activators of CRF receptor 2 with binding protein – uHTS hits, confirmation (AID 602473); type: functional; conditions: read-out: EC50_Mean
# [8] = blockers of CRF-binding protein–CRF-R2 complex – cell-based, uHTS hits, 384-well, dose response (AID 651639); type: functional, Homo sapiens; conditions: read-out: IC50_Mean
# BJ [9] = test: BJ-TERT fibroblast viability loss – cell-based, RAS-independent, luminescence, dose response (AID 1933); type: functional; conditions: Homo sapiens
# [10] = Luminescence Cell-Based Dose Retest to Confirm Inhibitors of Cancer Stem Cells. [Related pubchem assays (depositor defined):AID2717, AID2721]; type: functional; conditions: Homo sapiens
# BJ [11] = test: BJ-TERT-LT-ST fibroblast viability loss – cell-based, RAS-independent, luminescence, dose response (AID 1935); type: functional; conditions: Homo sapiens;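 also: BJ fibroblasts immortalized with TERT plus LT and ST oncogenes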
# BJ [12] = test: cells; type: functional, cell-based; conditions: Homo sapiens
# BJ [13] = test: growth inhibition of engineered Ras-driven BJ cells – cell-based, alamar blue fluorescence, cherrypicked samples, dose response (AID 2631); type: functional; conditions: Homo sapiens;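 also: confirmatory dose-response assay in RAS-dependent BJ fibroblasts engineered with TERT, LT and ST, with cytotoxicity read by fluorescence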
# [14] = DRD fibroblast viability loss – cell-based, non-viral oncogenic, luminescence, dose response (AID 1934); type: functional; conditions: Homo sapiens
# Chain of Adenosylmethionine-8-amino-7-oxononanoate aminotransferase (P9WQ81 whole entry): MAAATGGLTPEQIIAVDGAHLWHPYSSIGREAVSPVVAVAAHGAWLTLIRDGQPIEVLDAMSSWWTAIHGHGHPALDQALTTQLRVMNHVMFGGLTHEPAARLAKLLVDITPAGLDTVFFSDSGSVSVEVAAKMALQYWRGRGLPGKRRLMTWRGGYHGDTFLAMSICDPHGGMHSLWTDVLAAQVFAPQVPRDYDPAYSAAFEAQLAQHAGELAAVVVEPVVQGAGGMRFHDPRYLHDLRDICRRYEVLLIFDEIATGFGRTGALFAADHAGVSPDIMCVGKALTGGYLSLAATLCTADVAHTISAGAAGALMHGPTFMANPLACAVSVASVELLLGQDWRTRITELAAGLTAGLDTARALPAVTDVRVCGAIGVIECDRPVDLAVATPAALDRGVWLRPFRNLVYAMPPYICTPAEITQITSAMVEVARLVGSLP
compound,measurement,setting,value
CCCOC(=O)c1cccc(NC(=O)c2cccnc2)c1,AC50,[1],6.09 µM (active)
COc1ccc(C(=O)Nc2nnc(SCC(=O)NC3CCCC3)s2)c(OC)c1,IC50,cells,> 67.5 µM (inactive)
same,IC50,[2],> 0.0926 µM (active)
Cc1[nH]nc2ccc(-c3cncc(OCC(N)Cc4ccccc4)c3)cc12 (stereo not given),Ki,[3],> 1.58 µM (inactive)
same,Ki,[4],> 1.58 µM (inactive)
CCCCCn1cc[n+](C2=C([N-]S(=O)(=O)c3ccc(Cl)cc3)C(=O)c3ccccc3C2=O)c1,IC50,[5],30.2 µM (active)
same,AC50,INS1,3.09 µM (active)
Cc1cccc(NC(=O)c2cccc([N+](=O)[O-])c2O)c1C,IC50,[6],5.93 µM (active)
same,EC50,[7],> 53 µM (inactive)
same,IC50,[8],> 20 µM (inactive)
CC1(C)CC(=O)C(C2C3=C(CC(C)(C)CC3=O)Oc3ccc4ccccc4c32)C(=O)C1 (stereo not given),IC50,[6],14.8 µM (active)
same,EC50,[7],31.8 µM (active)
same,IC50,[8],> 20 µM (inactive)
CN[C@H]1CCc2cc(OC)c(OC)c(OC)c2-c2ccc(N(C)CC(OC)OC)c(=O)cc21,EC50,BJ [9],3.42 µM (active)
same,AC50,[10],1.86 µM (active)
same,EC50,BJ [11],2.98 µM (inconclusive)
same,EC50,BJ [12],21.4 µM (active)
same,EC50,BJ [13],0.578 µM (inconclusive)
same,EC50,[14],2.86 µM (active)
COc1ccc(C(=O)C2CCCN(C(=O)c3ccc(C(C)=O)s3)C2)c(C)c1 (stereo not given),AC50,[1],1.7 µM (active)

# Reference: ChEMBL document CHEMBL1201862, “PubChem BioAssay data set” (2004)
